According to PubChem BioAssay (NCI):
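1) Cells in 96-well plates. 2) Compound, 48 h, 5 concentrations. 3) Linear interpolation between surrounding doses. 4) Unreached endpoint = highest concentration. Abbreviation: GI50, concentration required for 50% inhibition of growth. Definition used: TGI = concentration required for complete inhibition of growth.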

Assays:
Test in all cases: NCI tumour cell line growth inhibition, 48 h
COLO 205 colon = system: COLO 205 colon
UACC-62 melanoma = system: UACC-62 melanoma
IGROV1 ovarian = system: IGROV1 ovarian
SK-OV-3 ovarian = system: SK-OV-3 ovarian
A498 renal = system: A498 renal
OVCAR-8 ovarian = system: OVCAR-8 ovarian
M14 melanoma = system: M14 melanoma
SF-268 CNS = system: SF-268 CNS
U251 CNS = system: U251 CNS
UO-31 renal = system: UO-31 renal

| Compound | TGI (COLO 205 colon) [µM] | TGI (UACC-62 melanoma) [µM] | TGI (IGROV1 ovarian) [µM] | TGI (SK-OV-3 ovarian) [µM] | TGI (A498 renal) [µM] | TGI (OVCAR-8 ovarian) [µM] | TGI (M14 melanoma) [µM] | TGI (SF-268 CNS) [µM] | TGI (U251 CNS) [µM] | TGI (UO-31 renal) [µM] | GI50 (COLO 205 colon) [µM] | GI50 (UACC-62 melanoma) [µM] | GI50 (IGROV1 ovarian) [µM] | GI50 (SK-OV-3 ovarian) [µM] | GI50 (A498 renal) [µM] | GI50 (OVCAR-8 ovarian) [µM] | GI50 (M14 melanoma) [µM] | GI50 (SF-268 CNS) [µM] | GI50 (U251 CNS) [µM] | GI50 (UO-31 renal) [µM] |
| --- | --- | --- | --- | --- | --- | --- | --- | --- | --- | --- | --- | --- | --- | --- | --- | --- | --- | --- | --- | --- |
| COc1cc(S(=O)(=O)Nc2nc(-c3ccc(N4C(=O)/C(=C/c5ccccc5[N+](=O)[O-])N=C4c4ccccc4)cc3)cs2)ccc1Cl | > 100 | 92.8 | > 100 | > 100 | > 100 | > 100 | > 100 | > 100 | > 100 | > 100 | – | – | – | – | – | – | – | – | – | – |
| Cl/C(=C\C=Nc1ccc(I)cc1)c1ccc2ccccc2c1 | 43 | 34.3 | > 55.7 | 74.4 | > 90 | 41.3 | 31.5 | 65.4 | 35 | > 55.9 | – | – | – | – | – | – | – | – | – | – |
| COC(=O)Nc1nc2ccc(NC(=O)c3cccs3)cc2[nH]1 | > 100 | > 100 | 14.4 | > 100 | 88.7 | > 100 | > 100 | > 100 | > 100 | 36.2 | – | – | – | – | – | – | – | – | – | – |
| CC(C)(C)OC(=O)NC1CCC(C(C)(C)C)CC1 (centres undefined) | > 100 | > 100 | > 100 | > 100 | > 100 | > 100 | – | > 100 | > 100 | > 100 | – | – | – | – | – | – | – | – | – | – |
| C[C@]12CC[C@H](O)CC1=CC[C@@H]1[C@@H]2CC[C@]2(C)C(=N/O)/C(=C/c3ccc([N+](=O)[O-])cc3)C[C@@H]12 | 15.7 | 28.6 | 26.7 | 22.5 | 11.7 | 9.75 | 21.1 | 24.8 | – | 24.7 | – | – | – | – | – | – | – | – | – | – |
| CCCC(=O)O.CCCC(=O)O.CCCC(=O)O.CCCC(=O)O.[Rh].[Rh] | 0.0406 | 0.142 | 0.73 | 0.829 | 0.325 | 0.428 | 0.195 | – | – | – | 0.0186 | 0.0343 | 0.189 | 0.278 | 0.151 | 0.0435 | 0.0569 | – | – | – |
| CC(=O)NNC(=O)C1CCCCN1 (centres undefined) | > 100 | – | > 100 | > 100 | > 100 | > 100 | > 100 | > 100 | > 100 | – | – | – | – | – | – | – | – | – | – | – |
| C=CCSSCC=C | > 100 | > 100 | > 100 | > 100 | > 100 | > 74.4 | > 100 | > 90.5 | > 100 | > 100 | – | – | – | – | – | – | – | – | – | – |
| C=C1C(=O)OC2CC1CCC1(C)OC1CCC(C)=CCCC2(C)O (centres undefined) | 5.95 | 10 | 15.8 | 36.7 | 3.52 | 7.78 | – | 14.2 | 29.2 | 18.7 | – | – | – | – | – | – | – | – | – | – |
| O=C1OCc2cc3cc4c(cc3c(-c3ccc5c(c3)OCO5)c21)OCO4 (tested in a mixture with another compound) | 75.1 | 68 | 66.7 | 48.1 | > 100 | > 100 | 32 | – | 43.7 | 63.8 | – | – | – | – | – | – | – | – | – | – |
| CN1CC(CNC(=O)OCc2ccccc2)CC2c3cccc4c3c(cn4C)CC21 (centres undefined) | 2.75 | 3.17 | 4.49 | – | 16 | 3.51 | 4.68 | 13.4 | 2.91 | 4.22 | 1.37 | 1.66 | 1.77 | – | 3.47 | 1.75 | 2.14 | 3.48 | 1.46 | 1.24 |
| Br/C(=N\Nc1nn[nH]n1)c1ccncc1 | > 100 | > 100 | > 100 | > 100 | > 100 | > 100 | > 100 | > 100 | > 100 | – | – | – | – | – | – | – | – | – | – | – |
| O=C(Nc1ccc(Cl)c(Cl)c1)N1N=C2c3ccccc3CCC2C1c1ccc(Cl)cc1 (centres undefined) | > 100 | > 100 | > 100 | > 100 | > 100 | > 100 | > 100 | > 100 | > 100 | > 100 | – | – | – | – | – | – | – | – | – | – |
| O=C(COc1ccc(Cl)c(Cl)c1)N(Cc1ccccc1)Cc1ccc[n+](Cc2ccc(Cl)cc2S(=O)(=O)F)c1 | > 100 | > 100 | > 100 | > 100 | > 100 | > 100 | > 100 | > 100 | > 100 | > 100 | – | – | – | – | – | – | – | – | – | – |
| O=C(Oc1ccc(Cl)cc1[N+](=O)[O-])c1ccccc1 | > 100 | > 100 | > 100 | > 100 | > 100 | > 100 | > 100 | > 100 | > 100 | > 100 | – | – | – | – | – | – | – | – | – | – |
| O=C1CCCC2C3CC(CN12)C1CCCCN1C3 (centres undefined) | > 100 | > 100 | > 100 | > 100 | > 100 | > 100 | > 100 | > 100 | > 100 | > 100 | – | – | – | – | – | – | – | – | – | – |
| Cc1cc(C)nc(SCCc2cccc[n+]2C)n1 | > 100 | > 100 | > 100 | > 100 | > 100 | > 100 | > 100 | > 100 | > 100 | > 100 | – | – | – | – | – | – | – | – | – | – |
| O=C1C(Cl)C(c2cc3cc(Br)ccc3nc2Cl)N1c1ccc(Cl)cc1 (centres undefined) | 10.2 | 10.2 | 7.17 | > 25 | > 25 | > 25 | 20.9 | 9.69 | – | 3.28 | – | – | – | – | – | – | – | – | – | – |
| COc1c(OC/C=C(\C)CCC=C(C)C)ccc2ccc(=O)oc12 | > 100 | > 100 | > 100 | > 100 | > 100 | > 100 | > 100 | > 100 | > 100 | > 100 | – | – | – | – | – | – | – | – | – | – |
| CC(C)(C)c1ccc(/C=N/NC(=O)CSCC(=O)N/N=C/c2ccc(C(C)(C)C)cc2)cc1 | 3.7 | 32 | 10.4 | 19.4 | 8.67 | 6.49 | 3.89 | 10.9 | 5.87 | 15.7 | – | – | – | – | – | – | – | – | – | – |
| CC[C@]12C=CCN3CC[C@@]4(c5cc(Br)c(OC)cc5N(C)[C@H]4[C@@](O)(C(=O)N[C@@H](Cc4ccc(O)cc4)C(=O)OC)[C@@H]1O)[C@@H]32 | 33.1 | 33.9 | 73.3 | > 100 | 40.8 | > 100 | 95.1 | 52.4 | 27.8 | 98.6 | – | – | – | – | – | – | – | – | – | – |
| COc1ccc(OC)c(CC(C)N)c1 (centres undefined) | > 100 | > 100 | > 100 | > 100 | > 100 | > 100 | > 100 | > 100 | > 100 | > 100 | – | – | – | – | – | – | – | – | – | – |
